Assay results as given in patent publication US20090239953A1, “USE OF AN ANTI-CANCER COMPOUND” (priority 2006, published 2009).
Read-outs that look alike come from different tables or passages of the source.

What was measured:
[1] = system: cervical cancer cells (HeLa cells); assay: TUNEL assay apoptosis, HeLa; format: cell-based, human; conditions: IC50 values, 24 and 48 hours, P<0.01 vs control
Excerpt: Apoptosis was quantified manually after TUNEL Assay. Data shown are mean±SD from duplicate samples. A double dagger denotes a P of <0.01 when compared with control as performed by One-Way ANOVA;

[2] = system: ovarian carcinoma cells (Caov-3 cells); assay: TUNEL assay apoptosis, Caov-3; format: cell-based, human; conditions: Caov-3, IC50 values, 24 and 48 hours, P<0.05 or P<0.01 vs control
Excerpt: Apoptotic cells were quantified manually after TUNEL Assay. Data shown are mean±SD from duplicate samples. A single dagger denotes a P of <0.05 when compared with control; a double dagger denotes a P of <0.01 when compared with control as performed by One-Way ANOVA;

[3] = system: human cervical cancer cells, HeLa; assay: Micro Tetrazolium (MTT) cytotoxicity assay on HeLa
Experimental: HeLa and Caov-3 cell lines were maintained in RPMI 1640 and DMEM high glucose respectively, supplemented with 10% FCS, 1% penicillin and 1% streptomycin. Cells were allowed to proliferate as monolayer cultures in 25 cm^2 and 75 cm^2 tissues culture flasks, in a humidified atmosphere containing 5% CO2 at 37° C.
A haemacytometer was used to determine the concentration of cells in the flask. Confluent cells were trypsinised in order to detach cells from surface of the flask. 10 mL of fresh medium was added into the flask and the cells were suspended thoroughly. 10 μl of medium from the flask was then transferred into a haemacytometer with cover slip. The counting was done under an inverted microscope and facilitated by manual counter usage. The cell density (for an example 1×10^5 cells/mL) was calculated. Using a multi-channel pipette, 100 μl of cell culture solution was transferred into each well of a 96-well microtiter plate. For a 6 well microtiter plate, 2 ml of the cell culture solution was pipetted instead. The plate was incubated overnight at 37° C. in 5% CO2.
The concentrations of zerumbone in each experiment varied according to the optimization of the experiment conducted. The controls or untreated cells received only medium without any treatment of either compounds. Treated cells were then incubated at 37° C. in 5% CO2.
This assay is based on the metabolic reduction of soluble MTT by mitochondrial enzyme activity of viable cancer cells, into an insoluble coloured formazan product, which can be measured spectrophotometrically after dissolution in dimethyl sulfoxide (DMSO) (Carmichale et al., 1987). The MTT assay was conducted according to the methods of Kumi-Diaka et at (1998) with minor modifications. The concentration of MTT solution used was 5 mg/mL. The MTT solution was prepared by dissolving 250 mg of MTT powder in 50 mL of phosphate buffer saline (PBS). A 0.2 micron syringe filter was used to filter the dissolved MTT. The filtered MTT solution was transferred into a sterile 50 mL centrifuge tube and covered with aluminum foil. This solution was stored in 4° C. and is ready to be used. The MTT assay was carried out as follows:
96-well microtiter plates containing cell culture solution were removed from the incubator after 72 hours incubation. 20 μl of 5 mg/mL MTT solution was added into each well including control wells. The plates were then wrapped with aluminium foil and incubated further for 4 hours at 37° C. in 5% CO2. After incubation, excess MTT reagent was aspirated and 100 μl of DMSO was added to dissolve the remaining purple colour formazan crystals. The plates were gently mixed on a plate shaker for approximately 4 minutes. The absorbance of the formazan solution was determined at 450 nm using a microplate reader.

[4] = system: induced cervical cancer in female balb/c mice; assay: DES-induced cervical cancer in female balb/c mice, cervical histology (H&E); format: in vivo; conditions: intra peritoneal, 4 dosages on alternate days, normal saline group CIN III
Experimental: 1 male mouse was cohabitate with 3 female mice for 48 hours prior to experiment to stimulate the ovulation of the female mice. After 48 hours, 1 male mouse was cohabitate with 1 female mouse. The next morning, the female mice were checked for a vaginal plug. The detection of vaginal plug at the vagina of the female mice were considered as the first day of pregnancy and gestation day (G=0). Once the female mouse was pregnant the corresponding male mouse was separated from the cage. Only one pregnant female mouse was placed in each cage to reduce the stress among the mice and also to reduce the chances of cannibalization of offspring by the mothers. The pregnant mice were given subcutaneous injection of 67 μg/kg body weight diethylstilbestrol (DES) dissolved in sesame oil (refer to appendix for DES preparation) from gestation day (13 to 18). Since the reproductive tract is developing during this time, so giving the DES injection too early may cause stillbirth. The mice gave birth approximately at gestation day (19 to 22). The offspring were weaned at 22 days of age. 1 female offspring was subjected for the confirmation of cervical dysplasia at 41 days of age. The other offspring were subjected for the treatment with cisplatin, zerumbone and normal saline.
All female offspring exposed to DES in uteri were pooled together and were divided into 4 groups where each group consists of 3 mice. […]

[5] = system: HeLa cancer cells; assay: Morphological study under normal inverted microscope, HeLa; format: cell-based, human; conditions: treated at IC50 value, 24, 48 and 72 hours
Experimental: (§1) Treated cancer cells of HeLa and Caov-3 in 96-well plates were observed under normal inverted microscope following 24, 48 and 72 hours of incubation. Apoptotic features of treated cells were examined and compared concurrently to untreated cells. The cells were observed under inverted microscope at magnification 20×10.

[6] = system: HeLa cancer cells; assay: Confocal microscopy with AO/PI stain, HeLa; format: cell-based, human; conditions: 48 hours, laser scanning confocal microscopy
Experimental: The plates were removed from the incubator after 24 and 48 hours of incubation period. The medium containing cells was transferred into labeled Eppendorf tubes (of each treated samples) placed in ice. The remaining cells in the wells were trypsinised until all cells were detached from the surfaces of each well. The medium containing cells in the Eppendorf tube was then transferred into the well of the tissue culture plate (of similar sample) to neutralise the trypsin. The medium in the wells was later transferred back into the Eppendorf tube (of similar sample) and centrifuged at 3000 rpm for 5 minutes, 4° C. Supernatant was discarded and 1 mL of 70% of cold alcohol was added. The pellet was re-suspended and placed in ice for 15 minutes for fixation. The samples were then centrifuged again at 3000 rpm for 5 minutes, 4° C. The supernatants containing the alcohol were discarded. The pellet was then re-suspended in 1 mL of phosphate buffer saline (PBS) and placed in ice for 10 minutes. The samples were centrifuged again, re-suspended in 1 mL of PBS and placed in ice for 10 minutes. This procedure was repeated again before discarding the supernatant.
The pellet containing cells was re-suspended with 15 μl of 10 μg/mL AO/PI mixture. Approximately 10 μl of the cell suspension was placed on a glass slide, and anti-fading agents were added onto the cells. […]

[7] = system: Caov-3 cancer cells; assay: Morphological study under normal inverted microscope, Caov-3; format: cell-based, human; conditions: Caov-3, treated at IC50 value, 24, 48 and 72 hours
Experimental: as §1

[8] = system: serum IL-6; assay: Serum IL-6 ELISA in mice with induced cervical cancer; format: in vivo; conditions: for Serum IL-6 levels vs normal saline treated mice: mice with induced cervical cancer, P<0.01 One-Way ANOVA
Experimental: All female offspring exposed to DES in uteri were pooled together and were divided into 4 groups where each group consists of 3 mice. The 5th group consists of 3 mice which was non-exposed to DES. The mice were given treatment starting from 46 days of age to 52 days of age. The treatment was given every alternate day (day 46, 48, 50, 52) which consist of 4 dosages. The treatment was given through intra peritoneal injection. The group 1 mice were treated with 0.9% of Normal Saline and this group acts as a positive control group. The group 2 mice were given 8 mg/kg of Zerumbone while the group 3 mice were given 16 mg/kg of Zerumbone. […] Finally no treatment was given to the mice in group 5 as they act as a negative control (normal mice) for the studies. Following treatment, all the mice were sacrificed at 54 days of age. The blood sample was collected through heart punctured method into a plain tube and was centrifuged at 3000 rpm for 15 minutes. The supernatant (serum) was collected into an eppendorf tube and was immediately stored in ice (0° C.—temporary storage). Once serum from all the samples was collected, the serum was stored at −20° C. Then the mice were dissected. The reproductive organ of the mice were collected and washed with 0.9% normal saline. The washed organ was soaked in 10% formalin and stored at room temperature.
The IL-6 serum levels in normal mice were used as negative control.

[9] = system: HeLa cells; assay: Cell cycle study by flow cytometry, HeLa; format: cell-based, human; conditions: 24 hours, zerumbone 0 to 45 μM
Experimental: Cells were plated in 25 cm^2 tissue culture flasks at concentrations of 0.5×10^5 cells/mL. After an overnight incubation, the cells were cultured in the presence of zerumbone at concentrations as indicated above for 24 hours. Cells were harvested using trypsin-EDTA before centrifuging at 3000 rpm for 5 minutes. The cells pellet was then re-suspended in 2 mL of phosphate buffer saline (PBS). The re-suspended cells were centrifuged at 3000 rpm for 5 minutes and the resulting cells pellet was re-suspended again in 1 mL of cold PBS. The cells were fixed by the addition of 4 mL of cold absolute ethanol (kept in −20° C. prior to use). The fixed cells were stored in −20° C. overnight before resuming the staining procedure.

[10] = system: Coa3 cancer cells; assay: Cell cycle study by flow cytometry, Caov-3; format: cell-based, human; conditions: Coa3 (Caov-3) cancer cells

Compound | Apoptosis quantified after TUNEL Assay [1] | Apoptosis, apoptotic cells quantified after TUNEL Assay [2] | IC50 value, growth proliferation of HeLa ([3]; MTT, 72-hours post-treatment) | IC50 ([3]; read-out: IC50 value (±S.E.M), growth proliferation of HeLa, MTT, 72-hours post-treatment) | Cervical tissue dysplasia grade (CIN) ([4]; 10 mg/kg cisplatin) | Morphological changes / cell growth vs untreated control [5] | Morphological changes after AO/PI staining [6] | Morphological changes / cell growth vs untreated control [7] | Serum IL-6 levels vs normal mice (negative control) ([8]; 10 mg/kg cisplatin) | Serum IL-6 levels vs normal saline treated mice [8] | Cell cycle progression (G2/M, G1, S phase) [9] | IC50 ([3]; Homo sapiens, 72 h, read-out: IC50 value (±S.E.M), growth proliferation of HeLa) | IC50 ([3]; Homo sapiens, 72 h, read-out: IC50 value, growth proliferation of HeLa) | Cell cycle progression (G2/M, G1, S phase) [10] | Cervical tissue dysplasia grade (CIN) ([4]; 16 mg/kg zerumbone) | Serum IL-6 levels vs normal mice (negative control) ([8]; 16 mg/kg zerumbone)
N.N.[Cl][Pt][Cl] [cisplatin, reference compound] | induced apoptosis | induced apoptosis | 1.6 µg/mL | 7.5 µM | mild dysplastic changes (CIN I) | Prominent growth retardation | blebbing of the cell membrane, nuclear condensation with margination and nuclear damage | Prominent growth retardation | almost near to the serum level of normal mice | lower | – | – | – | – | – | –
C/C1=C\CC(C)(C)/C=C/C(=O)/C(C)=C/CC1 [zerumbone] | induced apoptosis | induced apoptosis | – | – | – | Prominent growth retardation | blebbing of the cell membrane, nuclear condensation with margination and nuclear damage | Prominent growth retardation | – | lower | increase in the number of HeLa cancer cells and Coa3 cancer cells in the G2/M phase and a decrease in the G1 phase and S phase | 11.3 µM | 2.5 µg/mL | increase in the number of HeLa cancer cells and Coa3 cancer cells in the G2/M phase and a decrease in the G1 phase and S phase | mild dysplastic changes (CIN I) | almost near to the serum level of normal mice
